In ChEMBL document CHEMBL1124625, “Flavones. 2. Synthesis and structure-activity relationship of flavodilol and its analogues, a novel class of antihypertensive agents with catecholamine depleting properties” (J Med Chem, 1989):
Calls of active or inactive are those of the source. The rule behind the calls is not given here.

Tests used:
Rattus norvegicus [1] = test: Systolic blood pressure (SBP) in anesthetized spontaneously hypertensive rats (SHR) before administration of 75 mg/kg dose perorally.; assay type: functional; design: unit: mmHg; conditions: route oral
Rattus norvegicus [2] = test: Systolic blood pressure (SBP) in anesthetized spontaneously hypertensive rats(SHR) before administration of 17 mg/kg dose perorally; assay type: functional; conditions: route oral
Rattus norvegicus [3] = test: Systolic blood pressure (SBP) in anesthetized spontaneously hypertensive rats(SHR) at 7.5 hours after administration of 17 mg/kg dose, perorally; percentage falls in systolic blood pressure were not statistically signific ant; assay type: functional, organism-based; design: dose 17 mg/kg; conditions: Artery
Rattus norvegicus [4] = test: % decrease in heart norepinephrine in anesthetized spontaneously hypertensive rats(SHR) at 24 hours after administration of 35 mg/kg dose perorally; value significantly different was control; assay type: functional; conditions: route oral
Rattus norvegicus [5] = test: % decrease in systolic blood pressure (SBP) in anesthetized spontaneously hypertensive rats(SHR) after administration of 75 mg/kg dose perorally; conditions: route oral
Rattus norvegicus [6] = test: % decrease in brain norepinephrine in anesthetized spontaneously hypertensive rats(SHR) at 1 hours after administration of 150 mg/kg dose perorally; assay type: functional; conditions: route oral
Rattus norvegicus [7] = test: % decrease in heart norepinephrine in anesthetized spontaneously hypertensive rats(SHR) at 24 hours after administration of 75 mg/kg dose perorally; assay type: functional; conditions: route oral
Rattus norvegicus [8] = test: Systolic blood pressure (SBP) in anesthetized spontaneously hypertensive rats(SHR) at 7.5 hours after administration of 75 mg/kg dose perorally; assay type: functional; conditions: route oral
Rattus norvegicus [9] = test: % decrease in heart norepinephrine in anesthetized spontaneously hypertensive rats(SHR) at 3 hours after administration of 150 mg/kg dose perorally; assay type: functional; conditions: route oral
Rattus norvegicus [10] = test: % decrease in brain norepinephrine in anesthetized spontaneously hypertensive rats(SHR) at 3 hours after administration of 150 mg/kg dose perorally; assay type: functional; conditions: route oral
Rattus norvegicus [11] = test: % decrease in adrenal epinephrine in anesthetized spontaneously hypertensive rats(SHR) at 3 hours after administration of 150 mg/kg dose perorally; assay type: functional; conditions: route oral
Rattus norvegicus [12] = test: % decrease in adrenal epinephrine in anesthetized spontaneously hypertensive rats(SHR) at 24 hours after administration of 150 mg/kg dose perorally; assay type: functional; conditions: route oral
Rattus norvegicus [13] = test: Systolic blood pressure (SBP) in anesthetized spontaneously hypertensive rats(SHR) at 7.5 hours after administration of 35 mg/kg dose perorally; assay type: functional; conditions: route oral
Rattus norvegicus [14] = test: % decrease in heart norepinephrine in anesthetized spontaneously hypertensive rats(SHR) at 1 hours after administration of 150 mg/kg dose perorally; assay type: functional; conditions: route oral
Rattus norvegicus [15] = test: % decrease in heart norepinephrine in anesthetized spontaneously hypertensive rats(SHR) at 24 hours after administration of 150 mg/kg dose perorally; assay type: functional; conditions: route oral
Rattus norvegicus [16] = test: % decrease in brain norepinephrine in anesthetized spontaneously hypertensive rats(SHR) at 24 hours after administration of 35 mg/kg dose perorally; assay type: functional; conditions: route oral
Rattus norvegicus [17] = test: % decrease in adrenal epinephrine in anesthetized spontaneously hypertensive rats(SHR) at 1 hours after administration of 150 mg/kg dose perorally; assay type: functional; conditions: route oral
Rattus norvegicus [18] = test: % decrease in brain norepinephrine in anesthetized spontaneously hypertensive rats(SHR) at 24 hours after administration of 150 mg/kg dose perorally; assay type: functional; conditions: route oral
Rattus norvegicus [19] = test: % decrease in adrenal epinephrine in anesthetized spontaneously hypertensive rats(SHR) at 24 hours after administration of 75 mg/kg dose perorally; assay type: functional; conditions: route oral
Rattus norvegicus [20] = test: % decrease in adrenal epinephrine in anesthetized spontaneously hypertensive rats(SHR) at 7 hours after administration of 150 mg/kg dose perorally; assay type: functional; conditions: route oral
Rattus norvegicus [21] = test: % decrease in brain norepinephrine in anesthetized spontaneously hypertensive rats(SHR) at 24 hours after administration of 75 mg/kg dose perorally; assay type: functional; conditions: route oral
Rattus norvegicus [22] = test: % decrease in heart norepinephrine in anesthetized spontaneously hypertensive rats(SHR) at 7 hours after administration of 150 mg/kg dose perorally;; assay type: functional; conditions: route oral
Adrenergic receptor beta = Adrenergic receptor beta (Rattus norvegicus, UniProt P18090+P10608+P26255)
Description: Inhibition constant from beta adrenergic receptor binding assay

Cavia porcellus = species: Cavia porcellus; test: Inhibition of the isoproterenol response at a dose of 1 x 10e -4M in guinea pig; slight inhibition was found; assay type: functional, organism-based
Rattus norvegicus [23] = test: % decrease in systolic blood pressure (SBP) in anesthetized spontaneously hypertensive rats(SHR) after administration of 150 mg/kg dose perorally; conditions: route oral
Rattus norvegicus [24] = test: % decrease in adrenal epinephrine in anesthetized spontaneously hypertensive rats(SHR) at 24 hours after administration of 35 mg/kg dose perorally; assay type: functional; conditions: route oral
Rattus norvegicus [25] = test: % decrease in brain norepinephrine in anesthetized spontaneously hypertensive rats(SHR) at 7 hours after administration of 150 mg/kg dose perorally; assay type: functional; conditions: route oral

## CC(C)NCC(O)COc1ccc2c(=O)cc(-c3ccccc3)oc2c1 (configuration not stated)
Rattus norvegicus [1]
  Systolic blood pressure: 208
Rattus norvegicus [2]
  Systolic blood pressure: 203
Rattus norvegicus [3]
  Decrease in Systolic blood pressure: inactive
Rattus norvegicus [4]
  Decrease: 57%
Rattus norvegicus [5]
  % decrease SBP: 16%
Rattus norvegicus [6]
  Decrease: 0%
Rattus norvegicus [7]
  Decrease: 100%
Rattus norvegicus [8]
  Decrease in Systolic blood pressure: 27%
Rattus norvegicus [9]
  Decrease: 71%
Rattus norvegicus [10]
  Decrease: 2%
Rattus norvegicus [11]
  Decrease: 4%
Rattus norvegicus [12]
  Decrease: 39%
Rattus norvegicus [13]
  Decrease in Systolic blood pressure: 21%
Rattus norvegicus [14]
  Decrease: 40%
Rattus norvegicus [15]
  Decrease: 100%
Rattus norvegicus [16]
  Decrease: -4%
Rattus norvegicus [17]
  Decrease: 10%
Rattus norvegicus [18]
  Decrease: 14%
Rattus norvegicus [19]
  Decrease: 23%
Rattus norvegicus [20]
  Decrease: 16%
Rattus norvegicus [21]
  Decrease: 2%
Rattus norvegicus [22]
  Decrease: 100%
Adrenergic receptor beta
  Ki: 12 µM
Cavia porcellus
  Activity: Weak activity
Rattus norvegicus [23]
  % decrease SBP: 33%
Rattus norvegicus [24]
  Decrease: 17%
Rattus norvegicus [25]
  Decrease: 10%
